These results are taken from patent US20250230147A1, “LACTAMS AS CBL-B INHIBITORS” (Genentech, Inc., priority 2021, published 2025).

Test [1] deals with c-Cbl (Homo sapiens (Human), UniProt P22681). Put plainly: C-Cbl LCK Ub TR-FRET assay (c-cbl Lck HTRF). It is filed as biochemical. The following applies: for (fold-selectivity): C-cbl Lck HTRF IC50 relative to Cbl-b Lck HTRF IC50. In short, it runs like this: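 After the ubiquitination reaction, detection mixture was added and plates incubated 20 min at room temperature before reading. IC50 values were calculated with wells lacking LCK as the low control and DMSO as the high control.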
Chain of c-Cbl (P22681 47-435): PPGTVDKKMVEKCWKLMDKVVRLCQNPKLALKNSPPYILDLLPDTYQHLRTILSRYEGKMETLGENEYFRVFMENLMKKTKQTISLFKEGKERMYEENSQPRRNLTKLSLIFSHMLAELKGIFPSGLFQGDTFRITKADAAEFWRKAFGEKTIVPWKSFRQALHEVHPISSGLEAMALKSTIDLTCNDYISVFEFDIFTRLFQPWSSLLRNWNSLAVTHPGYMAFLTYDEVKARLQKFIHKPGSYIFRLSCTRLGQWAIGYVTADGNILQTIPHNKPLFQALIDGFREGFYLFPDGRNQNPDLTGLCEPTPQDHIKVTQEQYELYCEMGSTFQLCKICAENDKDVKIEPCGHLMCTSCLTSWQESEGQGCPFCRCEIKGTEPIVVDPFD
For orientation: In TR-FRET formats the signal depends on donor and acceptor labels being close together.

The target of test [2] is Cbl-b (Homo sapiens (Human), UniProt Q13191). Kind of test: Cbl-b LCK Ub TR-FRET assay (Cbl-b Lck HTRF). It is filed as biochemical. A digest of the protocol:
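TR-FRET (340 nm excitation, 615/665 nm emission) read after adding HA-ubiquitin–UBE2D2 thioester, anti-HA-D2 and streptavidin-Eu. Beforehand, compounds incubated 60 min with biotinylated Cbl-b, then 90 min with His-LCK and ATP (1 mM in 2× mix); IC50 from 10 concentrations, DMSO high and no-LCK low controls.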

Chain of Cbl-b (Q13191 40-426): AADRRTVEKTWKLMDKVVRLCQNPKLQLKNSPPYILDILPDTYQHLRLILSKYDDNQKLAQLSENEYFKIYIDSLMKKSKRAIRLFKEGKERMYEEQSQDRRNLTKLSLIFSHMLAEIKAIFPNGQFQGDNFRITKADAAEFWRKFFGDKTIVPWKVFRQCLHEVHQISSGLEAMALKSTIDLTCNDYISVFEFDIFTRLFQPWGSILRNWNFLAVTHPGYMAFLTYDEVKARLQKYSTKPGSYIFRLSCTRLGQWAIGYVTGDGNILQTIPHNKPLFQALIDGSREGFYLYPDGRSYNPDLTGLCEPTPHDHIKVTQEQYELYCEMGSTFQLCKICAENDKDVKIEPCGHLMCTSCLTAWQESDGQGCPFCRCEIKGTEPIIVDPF

For `Cn1cnnc1CC1(c2cc(CCC(C)(C)C)nc(N3Cc4c(cc(CNC5(C)CCC5)cc4C(F)(F)F)C3=O)c2)CCC1` [Compound 322, 2-(6-(3,3-dimethylbutyl)-4-(1-((4-methyl-4H-1,2,4-triazol-3-yl)methyl)cyclobutyl)pyridin-2-yl)-6-(((1-methylcyclobutyl)amino)methyl)-4-(trifluoromethyl)isoindolin-1-one], in test [1], half-maximal inhibition (IC50) required 34 nM and the “(fold-selectivity)” value was “(1.2x)”. In addition, 27 nM corresponded to half-maximal inhibition in test [2] (IC50).

In the case of `CCOc1cc(C2(Cc3nncn3C)CCC2)cc(N2Cc3c(cc(CNC4(C)CCC4)cc3C(F)(F)F)C2=O)n1` [Compound 359, 2-(6-ethoxy-4-(1-((4-methyl-4H-1,2,4-triazol-3-yl)methyl)cyclobutyl)pyridin-2-yl)-6-(((1-methylcyclobutyl)amino)methyl)-4-(trifluoromethyl)isoindolin-1-one], in test [1], the half-inhibitory concentration (IC50) (usually the concentration that gives 50% inhibition) was determined as 5.3 nM and the “(fold-selectivity)” value is recorded as “(0.71x)”. This compound also yielded an IC50 in test [2] of 11 nM.

For the compound `COc1cccc2c1CN(c1cccc(C3([C@@H](F)c4nncn4C)COC3)c1)C2=O` [Compound 206, (R)-2-(3-(3-(fluoro(4-methyl-4H-1,2,4-triazol-3-yl)methyl)oxetan-3-yl)phenyl)-4-methoxyisoindolin-1-one], in test [1], it took 2300 nM to reach half-maximal inhibition (IC50) and the “(fold-selectivity)” value is 1.5x. Also, the IC50 in test [2] is 1500 nM.

For `CC(C)[C@H]1CN(C)CCN1Cc1cc2c(c(C(F)(F)F)c1)CN(c1cccc(C3([C@@H](F)c4nncn4-c4ccccc4)COC3)c1)C2=O` [Compound 259, 2-(3-(3-((R)-fluoro(4-phenyl-4H-1,2,4-triazol-3-yl)methyl)oxetan-3-yl)phenyl)-6-(((S)-2-isopropyl-4-methylpiperazin-1-yl)methyl)-4-(trifluoromethyl)isoindolin-1-one], in test [1], 3100 nM corresponded to half-maximal inhibition (IC50) and the “(fold-selectivity)” value is given as “(1.0x)”. This compound gave an IC50 in test [2] of 3100 nM.

As for `Cn1cnnc1[C@H](F)C1(c2cccc(N3Cc4c(cc(CN5CC(CCO)C5)cc4C(F)(F)F)C3=O)c2)COC1` [Compound 177, (R)-2-(3-(3-(fluoro(4-methyl-4H-1,2,4-triazol-3-yl)methyl)oxetan-3-yl)phenyl)-6-((3-(2-hydroxyethyl)azetidin-1-yl)methyl)-4-(trifluoromethyl)isoindolin-1-one], the IC50 in test [1] was found to be 91 nM; in test [2], 41 nM. Besides, the “(fold-selectivity)” value in test [1] worked out at 2.2x.

As for `Cn1cnnc1CC1(c2cccc(N3Cc4c(cc(CNC5(C)CC(F)C5)cc4C(F)(F)F)C3=O)c2)CC(F)(F)C1` (stereo not drawn) [Compound 341, 2-(3-(3,3-difluoro-1-((4-methyl-4H-1,2,4-triazol-3-yl)methyl)cyclobutyl)phenyl)-6-(((3-fluoro-1-methylcyclobutyl)amino)methyl)-4-(trifluoromethyl)isoindolin-1-one], the IC50 in test [1] was determined as 10 nM; in test [2], 14 nM. The “(fold-selectivity)” value in test [1] is “(0.74x)”.

Consider `Cn1cnnc1C(F)(F)C1(c2cccc(N3Cc4c(cccc4C(F)(F)F)C3=O)c2)CC(F)(F)C1` [Compound 253, 2-(3-(1-(difluoro(4-methyl-4H-1,2,4-triazol-3-yl)methyl)-3,3-difluorocyclobutyl)phenyl)-4-(trifluoromethyl)isoindolin-1-one], for which, in test [1], half-maximal inhibition (IC50) required 3400 nM and the “(fold-selectivity)” value is “(2.6x)”. For the same compound, half-maximal inhibition in test [2] (IC50) required 1400 nM.

Regarding `CC(C)[C@H]1CN(C)CCN1C(C)c1cc2c(c(C(F)(F)F)c1)CN(c1cccc(C3([C@@H](F)c4nncn4C)CC(F)(F)C3)c1)C2=O` (stereo partly drawn) [Compound 388, 2-(3-(3,3-difluoro-1-((R)-fluoro(4-methyl-4H-1,2,4-triazol-3-yl)methyl)cyclobutyl)phenyl)-6-(1-((S)-2-isopropyl-4-methylpiperazin-1-yl)ethyl)-4-(trifluoromethyl)isoindolin-1-one], in test [1], the midpoint of inhibition, the IC50, lay at 63 nM and the “(fold-selectivity)” value is on record as “(1.4x)”. Also, half-maximal inhibition in test [2] (IC50) was put at 46 nM.

As for `CC(C)[C@H]1CN(Cc2cc3c(c(C(F)(F)F)c2)CN(c2cccc(C4(Cc5nncn5C)CC(F)(F)C4)c2)C3=O)CCN1` [Compound 429, (S)-2-(3-(3,3-difluoro-1-((4-methyl-4H-1,2,4-triazol-3-yl)methyl)cyclobutyl)phenyl)-6-((3-isopropylpiperazin-1-yl)methyl)-4-(trifluoromethyl)isoindolin-1-one], the 50% inhibitory concentration (IC50) worked out at 20 nM in test [1] and 26 nM in test [2]. Further, in test [1], the “(fold-selectivity)” value is on record as “(0.76x)”.

Consider `CCOc1cc(C2(Cc3nncn3C)CCC2)cc(N2Cc3c(cc(CNC4(C)CCC4)cc3C(F)(F)F)C2=O)n1` [Compound 285, 2-(6-ethoxy-4-(1-((4-methyl-4H-1,2,4-triazol-3-yl)methyl)cyclobutyl)pyridin-2-yl)-6-(((1-methylcyclobutyl)amino)methyl)-4-(trifluoromethyl)isoindolin-1-one], for which, in test [1], half-maximal inhibition (IC50) required 5.3 nM and the “(fold-selectivity)” value is listed as “(0.71x)”. The compound further had a half-inhibitory concentration (IC50) in test [2] of 8 nM.

In the case of `CC(C)[C@H]1CNCCN1Cc1cc2c(c(C(F)(F)F)c1)CN(c1cccc(C3([C@H](F)c4nncn4C)COC3)c1)C2=O` [Compound 97, 2-(3-(3-((S)-fluoro(4-methyl-4H-1,2,4-triazol-3-yl)methyl)oxetan-3-yl)phenyl)-6-(((S)-2-isopropylpiperazin-1-yl)methyl)-4-(trifluoromethyl)isoindolin-1-one], in test [1], inhibition was half-maximal at 38 nM (IC50) and the “(fold-selectivity)” value is recorded as 1.9x. Half-maximal inhibition in test [2] (IC50) required 20 nM.

Regarding `Cn1cnnc1[C@H](F)C1(c2cccc(N3Cc4c(cc(CN5CCC[C@H]5CO)cc4C(F)(F)F)C3=O)c2)COC1` [Compound 149, 2-(3-(3-((R)-fluoro(4-methyl-4H-1,2,4-triazol-3-yl)methyl)oxetan-3-yl)phenyl)-6-(((S)-2-(hydroxymethyl)pyrrolidin-1-yl)methyl)-4-(trifluoromethyl)isoindolin-1-one], in test [1], the IC50 was found to be 390 nM and the “(fold-selectivity)” value came out at 1.0x. In test [2], the IC50 is 380 nM.

As for `Cn1cnnc1CC1(c2cccc(N3Cc4c(cc(CNCC(C)(C)C)cc4C(F)(F)F)C3=O)c2)CC(F)(F)C1` [Compound 363, 2-(3-(3,3-difluoro-1-((4-methyl-4H-1,2,4-triazol-3-yl)methyl)cyclobutyl)phenyl)-6-((neopentylamino)methyl)-4-(trifluoromethyl)isoindolin-1-one], in test [1], half-maximal inhibition (IC50) required 9.6 nM and the “(fold-selectivity)” value is given as “(0.75x)”. This compound had a concentration for half-maximal inhibition (IC50) in test [2] of 13 nM.

`Cn1cnnc1[C@H](F)C1(c2cccc(N3Cc4c(cc(CN5CC6(C5)CS(=O)(=O)C6)cc4C(F)(F)F)C3=O)c2)COC1` [Compound 181, (R)-6-((2,2-dioxido-2-thia-6-azaspiro[3.3]heptan-6-yl)methyl)-2-(3-(3-(fluoro(4-methyl-4H-1,2,4-triazol-3-yl)methyl)oxetan-3-yl)phenyl)-4-(trifluoromethyl)isoindolin-1-one]: in test [1], the IC50 came out at 110 nM and the “(fold-selectivity)” value worked out at 2.1x. For the same compound, it took 52 nM to reach half-maximal inhibition in test [2] (IC50).

Consider `Cn1cnnc1[C@H](F)[C@@](C)(F)c1cccc(N2Cc3c(cc(CN4CC(C)(F)C4)cc3C(F)(F)F)C2=O)c1` [Compound 33, 2-(3-((1 S,2S)-1,2-difluoro-1-(4-methyl-4H-1,2,4-triazol-3-yl)propan-2-yl)phenyl)-6-((3-fluoro-3-methylazetidin-1-yl)methyl)-4-(trifluoromethyl)isoindolin-1-one], for which the IC50 in test [1] is 1900 nM; in test [2], 890 nM. Besides, the “(fold-selectivity)” value in test [1] is reported as 2.1x.
